{
  "source": "patent US8835436B2",
  "about": "(priority 2009, dated 2014)",
  "note": "Counter-ions that a name gives are not always drawn.",
  "data": [
    {"molecular_target": "human recombinant 5-HT2C receptor (Homo sapiens (Human), UniProt P28335)", "sequence (P28335 whole entry, looked up)": "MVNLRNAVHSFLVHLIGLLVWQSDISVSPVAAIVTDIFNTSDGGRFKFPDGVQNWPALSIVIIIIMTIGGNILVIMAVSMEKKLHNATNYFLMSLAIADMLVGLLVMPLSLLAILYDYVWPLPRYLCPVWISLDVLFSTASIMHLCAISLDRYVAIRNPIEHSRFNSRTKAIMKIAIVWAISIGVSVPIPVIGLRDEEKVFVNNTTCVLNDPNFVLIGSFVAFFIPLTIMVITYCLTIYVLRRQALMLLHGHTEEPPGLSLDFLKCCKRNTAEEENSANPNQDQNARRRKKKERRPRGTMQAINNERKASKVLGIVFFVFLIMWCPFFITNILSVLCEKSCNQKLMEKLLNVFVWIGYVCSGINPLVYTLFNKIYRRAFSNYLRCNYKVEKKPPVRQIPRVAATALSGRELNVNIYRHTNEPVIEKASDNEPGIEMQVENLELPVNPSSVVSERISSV", "conditions": "read-out: Binding affinity to serotonin receptor 5-HT2C: IC50", "units": {"IC50": "nM"}, "procedure": "Receptor binding affinities of the compounds for serotonin receptors were measured by the method described in the literature [Park W K et al., Pharmacol Biochem Behay.\nThe binding affinity (IC50) of a compound for the receptor was calculated by computerized nonlinear regression analysis (GraphPad Prism Program, San Diego, USA) using 7-8 varied concentrations of the compound run in duplicate tubes.\nNonspecific binding was determined using 100 uM mianserin. The incubations were performed for 60 min at 27° C., and these were terminated by rapid filtration through filtermate A glass fiber filter presoaked in 0.5% PEI.", "values": [
      {"smiles": "CCc1c(C(=O)NCCCN2CCN(c3cccc(Cl)c3Cl)CC2)nc(-c2ccc(Cl)cc2Cl)n1-c1ccc(Br)cc1", "note": "[Example 89, 1-(4-bromophenyl)-2-(2,4-dichlorophenyl)-N-(3-(4-(2,3-dichlorophenyl)piperazin-1-yl)propyl)-5-ethyl-1H-imidazole-4-carboxamide]", "IC50": 319},
      {"smiles": "Cc1cccc(N2CCN(CCNC(=O)c3nc(C)n(-c4ccc5c(c4)OCO5)c3C)CC2)c1C", "note": "[Example 115, 1-(benzo[d][1,3]dioxol-5-yl)-N-(2-(4-(2,3-dimethylphenyl)piperazin-1-yl)ethyl)-2,5-dimethyl-1H-imidazole-4-carboxamide dihydrochloride]", "IC50": 27},
      {"smiles": "Cc1cccc(N2CCN(CC(O)CNC(=O)c3nc(C)n(CC(C)C)c3C)CC2)c1C", "note": "(stereo not shown) [Example 94, N-(3-(4-(2,3-dimethylphenyl)piperazin-1-yl)-2-hydroxypropyl)-1-isobutyl-2,5-dimethyl-1H-imidazole-4-carboxamide dihydrochloride]", "IC50": 595},
      {"smiles": "Cc1cccc(N2CCN(CC(O)CNC(=O)c3nc(-c4ccccc4)n(-c4ccccc4)c3C)CC2)c1C", "note": "(stereo not shown) [Example 155, N-(3-(4-(2,3-dimethylphenyl)piperazin-1-yl)-2-hydroxypropyl)-5-methyl-1,2-diphenyl-1H-imidazole-4-carboxamide dihydrochloride]", "IC50": 525},
      {"smiles": "CCCc1nc(C(=O)NCCCN2CCN(c3cccc(C)c3C)CC2)cn1-c1ccccc1", "note": "[Example 117, N-(3-(4-(2,3-dimethylphenyl)piperazin-1-yl)propyl)-1-phenyl-2-propyl-1H-imidazole-4-carboxamide dihydrochloride]", "IC50": 103},
      {"smiles": "CCCn1c(C)nc(C(=O)NCC(O)CN2CCN(c3cccc(C)c3C)CC2)c1C", "note": "(stereo not shown) [Example 96, N-(3-(4-(2,3-dimethylphenyl)piperazin-1-yl)-2-hydroxypropyl)-2,5-dimethyl-1-propyl-1H-imidazole-4-carboxamide dihydrochloride]", "IC50": "> 10000"},
      {"smiles": "COc1ccccc1-n1c(C)nc(C(=O)NCC(O)CN2CCN(c3cccc(C)c3C)CC2)c1C", "note": "(stereo not shown) [Example 100, N-(3-(4-(2,3-dimethylphenyl)piperazin-1-yl)-2-hydroxypropyl)-1-(2-methoxyphenyl)-2,5-dimethyl-1H-imidazole-4-carboxamide dihydrochloride]", "IC50": 207},
      {"smiles": "CCCc1nc(C(=O)NCCCN2CCN(c3cccc(Cl)c3Cl)CC2)c(C)n1-c1ccccc1", "note": "[Example 7, N-(3-(4-(2,3-dichlorophenyl)piperazin-1-yl)propyl)-5-methyl-1-phenyl-2-propyl-1H-imidazole-4-carboxamide dihydrochloride]", "IC50": 189},
      {"smiles": "COc1ccccc1-n1c(C)nc(C(=O)NCCCN2CCN(c3cccc(Cl)c3Cl)CC2)c1C", "note": "[Example 145, N-(3-(4-(2,3-dichlorophenyl)piperazin-1-yl)propyl)-1-(2-methoxyphenyl)-2,5-dimethyl-1H-imidazole-4-carboxamide dihydrochloride]", "IC50": 25.5},
      {"smiles": "CCCc1nc(C(=O)NCC(O)CN2CCN(c3cccc(C)c3C)CC2)cn1-c1ccccc1", "note": "(stereo not shown) [Example 121, N-(3-(4-(2,3-dimethylphenyl)piperazin-1-yl)-2-hydroxypropyl)-1-phenyl-2-propyl-1H-imidazole-4-carboxamide dihydrochloride]", "IC50": 635},
      {"smiles": "Cc1cccc(N2CCN(CCCNC(=O)c3nc(C)n(CC(C)C)c3C)CC2)c1C", "note": "[Example 92, N-(3-(4-(2,3-dimethylphenyl)piperazin-1-yl)propyl)-1-isobutyl-2,5-dimethyl-1H-imidazole-4-carboxamide dihydrochloride]", "IC50": 10100},
      {"smiles": "Cc1cccc(N2CCN(CCNC(=O)c3nc(C)n(-c4ccc(F)cc4)c3C)CC2)c1C", "note": "[Example 114, N-(2-(4-(2,3-dimethylphenyl)piperazin-1-yl)ethyl)-1-(4-fluorophenyl)-2,5-dimethyl-1H-imidazole-4-carboxamide dihydrochloride]", "IC50": 46},
      {"smiles": "Cc1ccc(-n2c(C)nc(C(=O)NCCCN3CCN(c4cccc(C)c4C)CC3)c2C)cc1", "note": "[Example 147, N-(3-(4-(2,3-dimethylphenyl)piperazin-1-yl)propyl)-2,5-dimethyl-1-p-tolyl-1H-imidazole-4-carboxamide dihydrochloride]", "IC50": 78.1},
      {"smiles": "CCc1nc(C(=O)NCCN2CCN(c3cccc(Cl)c3Cl)CC2)c(C)n1-c1ccccc1", "note": "[Example 13, N-(2-(4-(2,3-dichlorophenyl)piperazin-1-yl)ethyl)-2-ethyl-5-methyl-1-phenyl-1H-imidazole-4-carboxamide]", "IC50": 62},
      {"smiles": "CCCc1nc(C(=O)NCC(O)CN2CCN(c3cccc(C)c3C)CC2)cn1-c1ccc(Cl)cc1", "note": "(stereo not shown) [Example 111, 1-(4-chlorophenyl)-N-(3-(4-(2,3-dimethylphenyl)piperazin-1-yl)-2-hydroxypropyl)-2-propyl-1H-imidazole-4-carboxamide dihydrochloride]", "IC50": 661},
      {"smiles": "Cc1ccc(-n2c(C)nc(C(=O)NCC(O)CN3CCN(c4cccc(C)c4C)CC3)c2C)cc1", "note": "(stereo not shown) [Example 148, N-(3-(4-(2,3-dimethylphenyl)piperazin-1-yl)-2-hydroxypropyl)-2,5-dimethyl-1-p-tolyl-1H-imidazole-4-carboxamide dihydrochloride]", "IC50": 705},
      {"smiles": "Cc1nc(C(=O)NCCCN2CCN(c3cccc(Cl)c3Cl)CC2)c(C)n1-c1ccccc1", "note": "[Example 6, N-(3-(4-(2,3-dichlorophenyl)piperazin-1-yl)propyl)-2,5-dimethyl-1-phenyl-1H-imidazole-4-carboxamide]", "IC50": 12.1},
      {"smiles": "COc1cc(OC)cc(-n2c(C)nc(C(=O)NCCN3CCN(c4cccc(C)c4C)CC3)c2C)c1", "note": "[Example 112, 1-(3,5-dimethoxyphenyl)-N-(2-(4-(2,3-dimethylphenyl)piperazin-1-yl)ethyl)-2,5-dimethyl-1H-imidazole-4-carboxamide dihydrochloride]", "IC50": 63},
      {"smiles": "COc1ccc(-n2cc(C(=O)NCCCN3CCN(c4cccc(C)c4C)CC3)nc2-c2ccccc2)cc1", "note": "[Example 134, N-(3-(4-(2,3-dimethylphenyl)piperazin-1-yl)propyl)-1-(4-methoxyphenyl)-2-phenyl-1H-imidazole-4-carboxamide dihydrochloride]", "IC50": 101}
    ]}
  ]
}
